From ChEMBL document CHEMBL1201862, “PubChem BioAssay data set” (2004)
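Where inhibition never reached the appropriate level, the endpoint shown equals the highest concentration tested. Otherwise, values were interpolated linearly from a five-concentration, 48-hour dose response in 96-well plates. Abbreviation: GI50, concentration required for 50% inhibition of growth.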 Activity calls are given as the source filed them. Rule as the data show it: active = GI50 up to about 1.1 µM and inactive = higher.

Tests used:
Experiment in all cases: NCI-60 cell line screen, 48 h
RPMI-8226 = test system: RPMI-8226
SF-295 = test system: SF-295
SK-MEL-2 = test system: SK-MEL-2
HCT-15 = test system: HCT-15
CCRF-CEM = test system: CCRF-CEM
MDA-MB-435 = test system: MDA-MB-435
A549 = test system: A549
M14 = test system: M14
UACC-62 = test system: UACC-62
EKVX = test system: EKVX
HCT-116 = test system: HCT-116
DU-145 = test system: DU-145
K562 = test system: K562
SK-OV-3 = test system: SK-OV-3
HCC 2998 = test system: HCC 2998
OVCAR-3 = test system: OVCAR-3
PC-3 = test system: PC-3
SW-620 = test system: SW-620
UACC-257 = test system: UACC-257
ACHN = test system: ACHN
786-0 = test system: 786-0
UO-31 = test system: UO-31
COLO 205 = test system: COLO 205
OVCAR-4 = test system: OVCAR-4
BT-549 = test system: BT-549
SK-MEL-28 = test system: SK-MEL-28
CAKI-1 = test system: CAKI-1
NCI-H226 = test system: NCI-H226
T47D = test system: T47D
MCF7 = test system: MCF7
HOP-92 = test system: HOP-92
HL-60 = test system: HL-60
Malme-3M = test system: Malme-3M
LOX IMVI = test system: LOX IMVI
SNB-75 = test system: SNB-75
TK-10 = test system: TK-10
SF-268 = test system: SF-268
HT-29 = test system: HT-29
NCI/ADR-RES = test system: NCI/ADR-RES
Hs-578T = test system: Hs-578T
RXF 393 = test system: RXF 393
NCI-H522 = test system: NCI-H522
KM12 = test system: KM12
SNB-19 = test system: SNB-19
MDA-N = test system: MDA-N
A498 = test system: A498
MDA-MB-231 = test system: MDA-MB-231
SN12C = test system: SN12C
SK-MEL-5 = test system: SK-MEL-5
OVCAR-8 = test system: OVCAR-8
SF-539 = test system: SF-539
NCI-H23 = test system: NCI-H23
SR = test system: SR
MOLT-4 = test system: MOLT-4
HOP-62 = test system: HOP-62
OVCAR-5 = test system: OVCAR-5
IGROV-1 = test system: IGROV-1
NCI-H460 = test system: NCI-H460
U-251 = test system: U-251

Measured: GI50

COc1cc2c[n+](C)c3c4cc(OC)c(OC)cc4ccc3c2cc1OC
> 100 µM: HCT-15
inactive: RPMI-8226 48 µM | SF-295 > 100 µM | SK-MEL-2 > 100 µM | CCRF-CEM 35.3 µM | MDA-MB-435 > 100 µM | A549 > 100 µM | M14 > 100 µM | UACC-62 > 100 µM | EKVX > 100 µM | HCT-116 > 100 µM | DU-145 25.4 µM | K562 26.1 µM | SK-OV-3 > 100 µM | HCC 2998 > 100 µM | OVCAR-3 29.1 µM | PC-3 72.9 µM | SW-620 91.2 µM | UACC-257 > 100 µM | ACHN > 100 µM | 786-0 > 100 µM | UO-31 > 100 µM | COLO 205 15.8 µM | OVCAR-4 55.3 µM | BT-549 32.1 µM | SK-MEL-28 > 100 µM | CAKI-1 > 100 µM

N=C1N(c2ccccc2)C(=S)/C(=N/c2ccccc2)N1c1ccccc1
7.19 µM: HCT-15
inactive: NCI-H226 20.2 µM | T47D 2.57 µM | MCF7 1.84 µM | HOP-92 9.48 µM | RPMI-8226 2.31 µM | HL-60 3.12 µM | SF-295 16.6 µM | SK-MEL-2 5.89 µM | Malme-3M 13.4 µM | CCRF-CEM 4.27 µM | MDA-MB-435 1.92 µM | LOX IMVI 2.01 µM | SNB-75 15.9 µM | TK-10 15 µM | SF-268 14.9 µM | A549 19.7 µM | M14 9.46 µM | HT-29 4.37 µM | NCI/ADR-RES 18.4 µM | Hs-578T 10 µM | UACC-62 5.77 µM | RXF 393 11.9 µM | NCI-H522 2.81 µM | KM12 14 µM | EKVX 21.1 µM | HCT-116 2.53 µM | SNB-19 16.6 µM | DU-145 17.4 µM | K562 2.45 µM | MDA-N 2.45 µM | SK-OV-3 18.9 µM | A498 17.7 µM | MDA-MB-231 8.73 µM | HCC 2998 15.3 µM | OVCAR-3 2.28 µM | SN12C 13.3 µM | SK-MEL-5 2.38 µM | OVCAR-8 4.95 µM | SF-539 12.4 µM | NCI-H23 6.03 µM | PC-3 10.2 µM | SW-620 4.27 µM | UACC-257 2.55 µM | ACHN 8.28 µM | SR 2.58 µM | 786-0 9.68 µM | UO-31 6.28 µM | MOLT-4 1.29 µM | HOP-62 19.3 µM | OVCAR-5 15.6 µM | COLO 205 3.3 µM | IGROV-1 12 µM | OVCAR-4 12.7 µM | NCI-H460 11.5 µM | SK-MEL-28 16.8 µM | U-251 14.2 µM | CAKI-1 14.4 µM

O=c1c2c(F)c(F)c(F)c(F)c2sc2nccn12
12.4 µM: HCT-15
active: T47D 0.745 µM
inactive: NCI-H226 25.2 µM | MCF7 17.4 µM | HOP-92 19.9 µM | RPMI-8226 16.7 µM | HL-60 2.06 µM | SF-295 17.9 µM | SK-MEL-2 19.1 µM | Malme-3M 17.3 µM | CCRF-CEM 11.3 µM | MDA-MB-435 14.9 µM | LOX IMVI 12.3 µM | SNB-75 22.5 µM | TK-10 18.4 µM | SF-268 18 µM | A549 19.5 µM | M14 17.6 µM | HT-29 16.9 µM | NCI/ADR-RES 26.8 µM | Hs-578T 31.3 µM | UACC-62 14.7 µM | RXF 393 17.7 µM | NCI-H522 18.9 µM | KM12 17.1 µM | EKVX 24.7 µM | HCT-116 13.9 µM | SNB-19 19.8 µM | DU-145 19.9 µM | K562 6.55 µM | MDA-N 14.4 µM | SK-OV-3 18.9 µM | A498 19.2 µM | MDA-MB-231 20.3 µM | HCC 2998 17.5 µM | OVCAR-3 14.4 µM | SN12C 18.5 µM | SK-MEL-5 18.5 µM | OVCAR-8 19.2 µM | SF-539 17.5 µM | NCI-H23 15.5 µM | PC-3 18.4 µM | SW-620 17.3 µM | UACC-257 13 µM | ACHN 16.4 µM | SR 3.27 µM | 786-0 15.2 µM | MOLT-4 3.01 µM | HOP-62 22.4 µM | OVCAR-5 20.4 µM | COLO 205 17.6 µM | IGROV-1 17.4 µM | OVCAR-4 19.5 µM | NCI-H460 11.2 µM | SK-MEL-28 23.4 µM | U-251 14.9 µM | CAKI-1 19 µM

CN1N=C(c2ccncc2)OC1c1cccc(F)c1 (stereo unspecified)
> 100 µM: HCT-15
inactive: NCI-H226 68.5 µM | T47D > 100 µM | MCF7 > 100 µM | RPMI-8226 > 100 µM | HL-60 > 100 µM | SF-295 > 100 µM | SK-MEL-2 > 100 µM | CCRF-CEM > 100 µM | MDA-MB-435 > 100 µM | LOX IMVI > 100 µM | SNB-75 > 100 µM | TK-10 > 100 µM | SF-268 > 100 µM | A549 > 100 µM | M14 > 100 µM | HT-29 > 100 µM | NCI/ADR-RES > 100 µM | Hs-578T > 100 µM | UACC-62 > 100 µM | RXF 393 > 100 µM | NCI-H522 > 100 µM | KM12 > 100 µM | EKVX > 100 µM | HCT-116 > 100 µM | SNB-19 > 100 µM | DU-145 > 100 µM | K562 > 100 µM | MDA-N > 100 µM | SK-OV-3 > 100 µM | A498 > 100 µM | MDA-MB-231 > 100 µM | HCC 2998 > 100 µM | OVCAR-3 > 100 µM | SN12C > 100 µM | SK-MEL-5 > 100 µM | OVCAR-8 > 100 µM | SF-539 > 100 µM | NCI-H23 > 100 µM | PC-3 > 100 µM | SW-620 > 100 µM | UACC-257 > 100 µM | ACHN > 100 µM | 786-0 > 100 µM | UO-31 > 100 µM | MOLT-4 > 100 µM | HOP-62 > 100 µM | OVCAR-5 > 100 µM | COLO 205 > 100 µM | IGROV-1 > 100 µM | OVCAR-4 > 100 µM | NCI-H460 > 100 µM | SK-MEL-28 > 100 µM | U-251 > 100 µM

O=C(O)c1cc2cc(OCc3ccccc3)ccc2[nH]1
> 100 µM: HCT-15
inactive: NCI-H226 23.4 µM | T47D > 100 µM | MCF7 88.1 µM | HOP-92 23.6 µM | RPMI-8226 > 100 µM | HL-60 > 100 µM | SF-295 > 100 µM | SK-MEL-2 61.7 µM | CCRF-CEM > 100 µM | MDA-MB-435 > 100 µM | LOX IMVI > 100 µM | TK-10 > 100 µM | SF-268 > 100 µM | A549 > 100 µM | M14 > 100 µM | NCI/ADR-RES > 100 µM | Hs-578T 4.72 µM | UACC-62 > 100 µM | RXF 393 > 100 µM | NCI-H522 > 100 µM | KM12 > 100 µM | EKVX > 100 µM | HCT-116 > 100 µM | SNB-19 73.6 µM | DU-145 > 100 µM | K562 > 100 µM | MDA-N > 100 µM | SK-OV-3 > 100 µM | A498 87.5 µM | MDA-MB-231 > 100 µM | HCC 2998 > 100 µM | OVCAR-3 > 100 µM | SN12C > 100 µM | SK-MEL-5 > 100 µM | OVCAR-8 > 100 µM | SF-539 > 100 µM | NCI-H23 > 100 µM | PC-3 > 100 µM | SW-620 > 100 µM | UACC-257 5.06 µM | ACHN > 100 µM | SR > 100 µM | 786-0 > 100 µM | UO-31 > 100 µM | MOLT-4 > 100 µM | HOP-62 > 100 µM | OVCAR-5 > 100 µM | COLO 205 > 100 µM | IGROV-1 > 100 µM | NCI-H460 > 100 µM | SK-MEL-28 4.01 µM | U-251 > 100 µM | CAKI-1 > 100 µM
active: Malme-3M 0.116 µM
